Patent publication US5837548A, “Treatment of inflammation by inhibition of lipid body formation” (Beth Israel Hospital, priority 1995, dated 1998)
Read-outs that look alike come from different tables or passages of the source. *1 amine or outer side, *2 acyl side, *3 side chain or, on linkers, in order; H or OH if unused. Where a SMILES comes first, the peptide text is derived from it. Bridges are numbered along the chain shown (N, C = ends). Roman numbers before positions name the chains, in order. [ ]: non-standard residue; d: D form. Actinocin(9to1) = Cc1c2oc3c(C)ccc(C(=O)[*:1])c3nc-2c(C(=O)[*:2])c(N)c1=O; NMeV = CN[CH](C(=O)O)C(C)C; Sar = CNCC(=O)O

How the values were obtained:
human neutrophils = assay: cis-unsaturated fatty acid-induced lipid body formation in human neutrophils (osmium staining, light microscopy enumeration); assay type: cell-based; settings: for inhibition at 1 µM / inhibition at 10 µM: Homo sapiens, Neutrophil, basal subtracted; for inhibition of arachidonic acid-induced lipid body formation / inhibition of oleic acid-induced lipid body formation: human neutrophils, staurosporine 0.1-1.0 μM, aspirin 10 μg/mL, others as in Tables 1 and 2; for effect on numbers of preformed lipid bodies: neutrophils
Experimental: Neutrophils were purified from fresh human blood obtained by venipuncture from healthy adult volunteers and collected into acidified citrate. After addition of 6% dextran 70 (McGaw, Irvine, Calif.), RBCs were allowed to sediment for 1 hour at room temperature. The leukocyte-rich supernatant was overlaid onto an equal volume of Ficoll-Paque gradient (Piscataway, N.J.), and centrifuged at 400×g for 20 min. […] Residual RBCs were lysed with hypotonic saline.
Human leukocytes (10^6 cells/mL) were incubated with varying concentrations of arachidonic acid (AA), oleic acid (OA) or vehicle at 37° C. in a 5% CO2 /95% O2 atmosphere, and after 1 hour leukocytes (10^5 cells per slide) were cytocentrifuged (550 rpm, 5 min) onto glass slides. During inhibitory studies, neutrophils were pretreated for 1 hour with varying concentrations of enzyme inhibitors, protein synthesis inhibitors, or vehicle as indicated. When PKC inhibitors were used, the pre-incubation time was reduced to 30 minutes to avoid toxic effects to the cells. […] Stock solutions for A23187, D609, U-73122, and indomethacin were prepared in DMSO and stored at -20° C. Aliquots were diluted in Ca^++ /Mg^++ fee HBSS to the indicated concentration immediately prior to use. […] The morphology of fixed cells was observed, and lipid bodies were enumerated with phase contrast microscopy and a 100× objective lens in 50 consecutively scanned leukocytes.
Results were expressed as mean±SEM and were analyzed statistically by means of the analysis of variance followed by the Newman-Keuls-Student test with the level of significance set at p<0.05. Correlation coefficients were determined by linear regression, and correlation analysis was performed by Fisher's r to z transformation with the level of significance set at p<0.05.
^1 Neutrophils (10^6 /ml) were pretreated with protein kinase C
(actinomycin D, cycloheximide) for 30 min or with phospholipase C
inhibitors (D609, U73122) for 1 h. The cells were then stimulated with
vehicle, arachidonic acid (15 μM), or oleic acid (10 μM), for 1 h.
Results are mean ± SEM from fifty consecutively counted neutrophils.
Statistically significant differences between the agonist alone and the
inhibitor are represented by an asterisk(*). Percent inhibition has been
calculated after subtracting out the basal number of lipid bodies/PMN
present prior to stimulation.
^1 Neutrophils (10^6 /ml) were pretreated with the NSAID or
vehicle for 1 h then stimulated with vehicle, arachidonic acid, or oleic
± SEM from fifty consecutively counted neutrophils. Statistically
significant differences between the agonist alone and the NSAID are
represented by an asterisk (*). Percent inhibition has been calculated
after subtracting out the basal number of lipid bodies/PMN present prior

human leukocytes = assay: cytotoxicity / cell viability by trypan blue dye exclusion; assay type: cell-based; settings: neutrophils
Experimental: Human leukocytes (10^6 cells/mL) were incubated with varying concentrations of arachidonic acid (AA), oleic acid (OA) or vehicle at 37° C. in a 5% CO2 /95% O2 atmosphere, and after 1 hour leukocytes (10^5 cells per slide) were cytocentrifuged (550 rpm, 5 min) onto glass slides. During inhibitory studies, neutrophils were pretreated for 1 hour with varying concentrations of enzyme inhibitors, protein synthesis inhibitors, or vehicle as indicated. When PKC inhibitors were used, the pre-incubation time was reduced to 30 minutes to avoid toxic effects to the cells. The cell viability, determined by trypan blue dye exclusion at the end of each experiment, was always greater than 90%. Stock solutions for A23187, D609, U-73122, and indomethacin were prepared in DMSO and stored at -20° C. Aliquots were diluted in Ca^++ /Mg^++ fee HBSS to the indicated concentration immediately prior to use. The final DMSO concentration was always lower than 0.1% and had no effect on lipid body numbers. […] The morphology of fixed cells was observed, and lipid bodies were enumerated with phase contrast microscopy and a 100× objective lens in 50 consecutively scanned leukocytes.

[1] = arachidonic acid 15 μM, inhibitor 1 μM
[2] = arachidonic acid 15 μM, inhibitor 10 μM
[3] = oleic acid 10 μM, inhibitor 1 μM
[4] = oleic acid 10 μM, inhibitor 10 μM

Row | SMILES | inhibition at 1 µM (human neutrophils; arachidonic acid 15 μM, inhibitor 1 μM, read-out: % inhibition) | inhibition at 10 µM (human neutrophils; arachidonic acid 15 μM, inhibitor 10 μM, read-out: % inhibition) | inhibition at 1 µM (human neutrophils; oleic acid 10 μM, inhibitor 1 μM, read-out: % inhibition) | inhibition at 10 µM (human neutrophils; oleic acid 10 μM, inhibitor 10 μM, read-out: % inhibition) | lipid bodies (mean ± SEM)/cell (human neutrophils; [1]) | lipid bodies (mean ± SEM)/cell (human neutrophils; [2]) | inhibition of arachidonic acid-induced lipid body formation (human neutrophils) | inhibition of oleic acid-induced lipid body formation (human neutrophils) | effect on numbers of preformed lipid bodies (human neutrophils) | lipid bodies (mean ± SEM)/cell (human neutrophils; [3]) | lipid bodies (mean ± SEM)/cell (human neutrophils; [4]) | cytotoxicity (human leukocytes) | inhibition at 1 µM (human neutrophils; [1]) | inhibition at 10 µM (human neutrophils; [2]) | inhibition at 1 µM (human neutrophils; [3]) | inhibition at 10 µM (human neutrophils; [4])
1 | Cc1c2oc3c(C)ccc(C(=O)NC4C(=O)NC(C(C)C)C(=O)N5CCCC5C(=O)N(C)CC(=O)N(C)C(C(C)C)C(=O)OC4C)c3nc-2c(C(=O)NC2C(=O)NC(C(C)C)C(=O)N3CCCC3C(=O)N(C)CC(=O)N(C)C(C(C)C)C(=O)OC2C)c(N)c1=O (stereo not drawn) [actinomycin D] (I: TVP[Sar][NMeV] / II: TVP[Sar][NMeV]; ester I:1-I:C, II:1-II:C; linker I:N-II:N via Actinocin(9to1); configuration not given here) | 47% | 64% | 26% | 42% | 8.4 ± 0.3 lipid bodies/cell | 7.6 ± 0.3 lipid bodies/cell | significantly inhibited | significantly inhibited | did not alter numbers of preformed lipid bodies | 8.8 ± 0.3 lipid bodies/cell | 8.1 ± 0.3 lipid bodies/cell | not cytotoxic | – | – | – | –
2 | C[C@@H]1C[C@@H]([C@H](O)CC2CC(=O)NC(=O)C2)C(=O)[C@@H](C)C1 [cycloheximide] | – | – | – | – | 9.8 ± 0.3 lipid bodies/cell | 9.2 ± 0.3 lipid bodies/cell | significantly inhibited | significantly inhibited | did not alter numbers of preformed lipid bodies | 9.0 ± 0.3 lipid bodies/cell | 8.3 ± 0.3 lipid bodies/cell | not cytotoxic | 17% | 30% | 22% | 38%
